The target of test [1] is T1, AfGna1 (Aspergillus fumigatus, UniProt Q4WCU5).
T1 construct: gene AFUA_6G02460; GST fusion (pGEX6P-1) from E. coli BL21(DE3) pLysS, GST tag cleaved with PreScission; obligate homodimer; 164-165 residues modelled; biotinylated for BLI
T1 sequence (Q4WCU5 1-190): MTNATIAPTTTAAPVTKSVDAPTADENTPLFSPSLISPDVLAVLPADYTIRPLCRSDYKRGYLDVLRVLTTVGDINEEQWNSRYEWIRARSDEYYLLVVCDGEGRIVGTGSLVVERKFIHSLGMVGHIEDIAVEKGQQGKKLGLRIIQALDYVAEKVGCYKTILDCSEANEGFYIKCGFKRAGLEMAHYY
Nature of the test: bio-layer interferometry, confirmed by isothermal titration calorimetry. The test is classed as binding. To be noted: read-out: equilibrium dissociation constant. On the technique in general: Biolayer interferometry detects binding as a change in optical thickness at a sensor tip.

Test [2] addresses T1, AfGna1. The test is described as follows: bio-layer interferometry, biotinylated protein on SSA biosensors. The test is classed as binding.

`Clc1ccccc1-c1nnc[nH]1` [compound 1, fragment hit 1]: the Kd on AfGna1 [1] is 6 µM. `Nc1cccc(-c2nc[nH]n2)c1Cl` [compound 2, 2-chloro-3-(1,2,4-triazol-3-yl)aniline] came in with a Kd on AfGna1 [2] of 800 nM.

The compound `OCCN(CCO)c1cc(Cl)c(-c2nc[nH]n2)c(Cl)c1` [compound 3, 2,2′-((3,5-dichloro-4-(1,2,4-triazol-3-yl)phenyl)azanediyl)bis(ethan-1-ol)] had a Kd at AfGna1 [2] of 5000 nM.

Source of the values: PMC7324522, “Targeting a critical step in fungal hexosamine biosynthesis” (The Journal of Biological Chemistry, 2020).
